{
  "source": "patent US20210205253A1",
  "about": "“Use Of Stearic Acid For Preventing Or Treating Pulmonary Fibrosis” (THE ASAN FOUNDATION, priority 2018, published 2021)",
  "key": {"[1]": {"tested_on": "human pulmonary epithelial cells (BEAS-2B)", "experiment": "Cell viability (MTT) of human pulmonary epithelial cells", "type": "cell-based", "settings": "stearic acid 40 uM/mL + TGF-β 5 ng/mL, 24 h, versus TGF-β alone", "procedure": "After epithelial cells and fibroblasts were aliquoted into 6-well plates at 2×10^4 cells/well and a stabilization time was imparted for 24 hours, and 15 hours after deficiency, cells were treated with stearic acid (40 uM/mL), TGF-β (5 ng/mL), and stearic acid (40 uM/mL)+TGF-β (5 ng/mL) in this order. After the cells were cultured in an incubator for 24 hours after the treatment, the next-step experiment was performed.\nAfter a 24-hour cell stimulation by the method in Example 1-3 was completed, the medium of epithelial cells and fibroblasts was replaced with a general culture medium, 10 μl of an MTT solution (20 mg/ml) was further added, and then the outside of the plate was wrapped with aluminum foil and cells were cultured in an incubator for 2 hours. […] After 2 hours, cell activation was measured at an absorbance value of 595 nm using an ELISA reader.\nFor this purpose, after each culture (BEGM(Lonza) in the case of MRC-5, and BMEM (ATCC) in the case of BEAS-2B) of human pulmonary fibroblasts (MRC-5; ATCC® CCL171™) and human pulmonary epithelial cells (BEAS-2B; ATCC® CRL9609™) was treated with stearic acid (40 uM/mL), TGF-β (5 ng/mL; Sigma), or stearic acid (40 uM/mL)+TGF-β (5 ng/mL) by the method described in Example 1-3 for 24 hours, cell viability was measured by the method in Example 1-4. […]"}, "pulmonary fibroblasts": {"tested_on": "pulmonary fibroblasts", "experiment": "Collagen 1 and α-SMA immunoblotting in pulmonary fibroblasts", "type": "cell-based, human", "settings": "stearic acid 40 uM/mL", "procedure": "After epithelial cells and fibroblasts were aliquoted into 6-well plates at 2×10^4 cells/well and a stabilization time was imparted for 24 hours, and 15 hours after deficiency, cells were treated with stearic acid (40 uM/mL), TGF-β (5 ng/mL), and stearic acid (40 uM/mL)+TGF-β (5 ng/mL) in this order. After the cells were cultured in an incubator for 24 hours after the treatment, the next-step experiment was performed. After 24 hours of cell stimulation by the method of Example 1-3, the cells were washed twice with iced phosphate buffer saline (PBS), a protein lysate solution was put thereinto, the cells were scraped out and collected in a 1.5 ml EP tube, and then the cells were lysed in a grinder for 30 seconds. Next, centrifugation was performed at a speed of 14,000 rpm at 4° C. for 20 minutes, and the protein was quantified using the BCA analysis method. Thereafter, the protein sample was boiled at 95° C. for 10 minutes for the same amount of protein, and then the expression levels of collagen type 1 and α-SMA were measured by immunoblotting. After the expression level of the protein was confirmed, a significance test between samples was performed using a statistical program. […] The collagen 1/actin or α-SMA/actin indicated on the y-axis of FIGS. 4A and 4B means a value obtained by correcting the protein amount of collagen 1 or α-SMA with the amount of actin, which is an intracellular control protein. […] Further, referring to the test method of obtaining the results in FIG. 4, after pulmonary fibroblasts were treated with palmitic acid at various concentrations (10, 20, and 40 μM/mL), the levels of collagen 1 (collagen 1/actin; FIG. 6A) and α-SMA (α-SMA/actin; FIG. 6B), which are intracellular fibrosis markers, were measured, and shown as relative values to the control (CTL; medium only). […] 40 uM/mL stearic acid, 10 uM/mL palmitic acid, and 5 ng/mL TGF-β were used in the experiment, respectively. […] In addition, referring to the test method of obtaining the results in FIG. 7, the experiment was performed using oleic acid (OA) instead of palmitic acid, and the levels of collagen 1 (collagen 1/actin; FIG. 8A) and α-SMA (α-SMA/actin; FIG. 8B) were measured and shown as relative values to the control (CTL; medium only). 40 uM/mL stearic acid, 40 uM/mL oleic acid, and 5 ng/mL TGF-β were used in the experiment, respectively."}, "[2]": {"tested_on": "human primary fibroblasts", "experiment": "Combined treatment of stearic acid and pirfenidone in human primary fibroblasts (western blotting)", "type": "cell-based", "settings": "TGF-β 5 ng/ml; 40 μM stearic acid single treatment (Lane 4)", "procedure": "The primary fibroblasts derived from the patients with idiopathic pulmonary fibrosis used in the following experiment were cultured for 7 to 10 days while cutting the lung tissue of the patient into 1×1 mm^2 slices, and then periodically exchanging a cell culture solution (Eagle's minimal essential medium; EMEM) supplemented with 100 unit/ml penicillin, 100 μg/ml streptomycin, and 10% fetal bovine serum (FBS) under conditions of 5% CO2 and 37° C., and cells of passage 2 to 5 were used for the experiment.\nTo verify the anti-fibrotic effect by the combined treatment of stearic acid and pirfenidone, which is a therapeutic agent for idiopathic pulmonary fibrosis, the human primary fibroblasts isolated by the above-described method were respectively or simultaneously treated with 5 ng/ml TGF-β, 40 μM stearic acid, and 400 or 800 μM pirfenidone for 24 hours, and then the expression levels of collagen type 1 (COL-1) and α-SMA, which are markers of fibrosis, were measured by western blotting, and the inhibitory rate was quantitatively analyzed by correcting the amount of each protein with the amount of actin, which is an intracellular control protein."}, "[3]": {"settings": "increase by oleic acid 40 uM/mL"}, "[4]": {"settings": "increase by palmitic acid 10 uM/mL"}},
  "data": [
    {"compound": "CCCCCCCCCCCCCCCCCC(=O)O", "note": "[stearic acid]", "values": [
      {"measurement": "cell viability of pulmonary epithelial cells", "setting": "[1]", "value": "cell viability increased"},
      {"measurement": "collagen 1/actin", "setting": "pulmonary fibroblasts; increase by TGF-β 5 ng/mL", "value": "significantly inhibited"},
      {"measurement": "α-SMA/actin", "setting": "pulmonary fibroblasts; increase by TGF-β 5 ng/mL", "value": "significantly inhibited"},
      {"measurement": "collagen 1/actin", "setting": "pulmonary fibroblasts; [3]", "value": "significantly inhibited"},
      {"measurement": "α-SMA/actin", "setting": "pulmonary fibroblasts; [3]", "value": "significantly inhibited"},
      {"measurement": "collagen 1/actin", "setting": "pulmonary fibroblasts; [4]", "value": "significantly inhibited"},
      {"measurement": "α-SMA/actin", "setting": "pulmonary fibroblasts; [4]", "value": "significantly inhibited"},
      {"measurement": "change in COL-1", "setting": "[2]", "value": "insignificant"},
      {"measurement": "α-SMA", "setting": "[2]", "value": "reduced"}
    ]}
  ]
}
